This is an account of results in patent US20160199434A1, “COMPOSITIONS AND METHODS FOR MODULATING DNA METHYLATION” (OHIO STATE INNOVATION FOUNDATION, priority 2013, published 2016).

For the assay, the system named is human A375 melanoma cells. The experiment in a line: Tumor growth of human A375 melanoma cells implanted in SCID mice. It counts as in vivo, mouse. The note with it: 19 days after palpable tumor formation, AKB-6899 17.5 mg/kg, Docetaxel 30 mg/kg. The protocol: During treatment, tumor growth was determined. Animals were treated with one the following combinations: vehicle/vehicle, vehicle/AKB-6899 (17.5 mg/kg), Docetaxel (30 mg/kg)/vehicle, or Docetaxel/AKB-6899. 19 days after palpable tumor formation, the tumors in the mice receiving the vehicle/AKB-6899 combination had tumors that were 74% the size of control; the tumors in the mice receiving Docetaxel/vehicle combination had tumors that were 49% the size of control; and the tumors in the mice receiving the Docetaxel/AKB-6899 combination had tumors that were 13% the size of control.

Turning to `CC(=O)O[C@@]12CO[C@@H]1C[C@H](O)[C@@]1(C)C(=O)[C@H](O)C3=C(C)[C@@H](OC(=O)[C@H](O)[C@@H](NC(=O)OC(C)(C)C)c4ccccc4)C[C@@](O)([C@@H](OC(=O)c4ccccc4)[C@H]21)C3(C)C` [Docetaxel, reference compound], the “tumor size relative to control” value amounted to 49%.
